From paper PMC8006131, “Pulse Dipolar EPR Reveals Double-Histidine Motif Cu^II−NTA Spin-Labeling Robustness against Competitor Ions” (The journal of physical chemistry letters, 2021)
pKd: −log10 of the molar value. Where two headings read alike, the source gives them in different places.

Experiments:
[1] = molecular target: T1, K28H/Q32H GB1 (Streptococcus sp. group G, UniProt P06654, K254H/Q258H); experiment: Isothermal titration calorimetry (ITC) at 298 K, single-site binding model
T1 construct: made in house
Protocol: seconds between injections, at 298 K. All solutions were degassed before the use and the final samples were centrifuged immediately before measurements. For the ZnII-NTA measurements, K28H/Q32H GB1 concentration was 800 μΜ, and titrant concentration was 12 mM. For the variable pH measurements, K28H/Q32H GB1 concentration was 75 μM and titrant concentration was 2.5 mM. Blank conditions of either buffer A (42.4 mM Na2HPO4, 7.6 mM KH2PO4, 150 mM NaCl, pH 7.4) titrated against addition of 12 mM titrant, or pH adjusted buffer A titrated against addition of 1.0 or 2.0 mM titrant, were recorded for the competitor and variable pH ITC measurements, respectively.
Subtraction of the blank measurements from the raw data mitigated the heat of dilution. All data analyses were performed in MicroCal Origin 7 (OriginLab, Northampton, MA) and thermodynamic parameters were derived using standard Marquardt fitting of a single-site binding model, as in our previous work.1 The fitted equation is given as:
Where: 3($) is the heat content of the solution at the point of the <th injection, is the binding constant, 4 is the stoichiometry of binding, =7 is the molar heat of ligand binding, 8 is the active cell volume, 56 is the total concentration of macromolecule contained in 8 , :6 is the total concentration of ligand contained in 8 .
1.8 UV-visible Spectroscopy:
All UV-visible absorbance spectra were recorded using a Jenway 67 series UV-vis spectrophotometer, in plastic cuvettes with a path length of 10 mm, in single-beam mode. All spectra are recorded at ambient temperature, and with a wavelength resolution of 1 nm, in the wavelength range 320-800 nm. Each sample was blanked before measurement, and all were repeated in triplicate. Data was processed using the Jenway 67-series software suite, and were exported to ASCII format for plotting and analysis in Matlab. For quantitation of CuII-IDA and CuII-NTA concentration, molar extinction coefficients of 62 M-1 cm-1 and 59 M-1cm-1 at 726 nm, and 800 nm were used, respectively, taken from previous literature.1,11

[2] = molecular target: T2, I6R1/K28H/Q32H GB1 (Streptococcus sp. group G, UniProt P06654, I232C/K254H/Q258H); experiment: Cu^II-nitroxide RIDME pseudotitration (pulse dipolar EPR); format: binding; conditions: for pKd: read-out: fitted dissociation constant (bivariate fit)
T2 construct: MTSL nitroxide spin label on Cys6 (R1 side chain); made in house
From the text: (§1) I Experimental Procedures:
(§2) 1.1 Construct Design, Expression and Purification:
(§3) Constructs of Streptococcus sp. group G, protein G B1 domain (GB1) were designed, expressed and purified as previously described.1,2 For completeness the protein sequences for the K28H/Q32H and I6C/K28H/Q32H GB1 constructs are given below in figures S1 and S2, respectively. The positions of the cysteine and double-histidine motif are indicated in cyan and green, respectively.
(§4) K28H/Q32H GB1 Protein Sequence:
(§5) Figure S1. Full amino-acid sequence for the K28H/Q32H GB1 construct used in this work, with each histidine residue of the double-histidine motif shown in green; and residue number indicated above the sequence.
(§6) I6C/K28H/Q32H GB1 Protein Sequence:
Figure S2. Full amino-acid sequence for the I6C/K28H/Q32H GB1 construct used in this work, with the cysteine residue shown in cyan and each histidine residue of the double-histidine motif shown in green; and residue numbers indicated […]
1.2 Pulse EPR Sample Preparation:
All material was exchanged into pH-adjusted deuterated buffer A (42.4 mM Na2HPO4, 7.6 mM KH2PO4, 150 mM NaCl) by first freeze-drying and then re-dissolving in D2O. For Q-band RIDME samples of 6R1/28H/32H GB1, a total volume of 70 μL was used, with protein concentrations of 1, 2, or 5 μM as stated. All EPR samples were frozen by direct immersion into liquid nitrogen. ZnII-NTA and CuII-NTA stock solutions were prepared as previously described1,3; and for labelling, ZnII-NTA and CuII-NTA stock solutions with nominal concentrations of 100 and 10 mM were used, […]
1.3 Metal Chelate Spin Label Preparation:
For preparation of all metal-NTA labels: CuII-NTA, and ZnII-NTA, , ZnCl2, CuCl2 and NTA were weighed in a glove-box and aliquoted into 1.5 mL reaction tubes. Stock solutions of 100 mM were prepared as previously described.3 Complete dissolution was ensured by vortexing until solutions were clear […]
of precipitate. […]
1.5 Pulse EPR Measurements:
All pulse EPR experiments were performed using a Bruker ELEXSYS 580 pulse EPR spectrometer.
Temperatures were maintained using a cryogen-free variable temperature cryostat (Cryogenic Ltd) operating in the 1.8-300 K temperature range. All measurements of the electron spin longitudinal relaxation times (T1) of CuII-NTA, and all 5-pulse dead-time free RIDME measurements4 were performed at 30 K, using a high-power 150 W travelling-wave tube (TWT; Applied Systems […]
an SRT of 2 ms, with 2560 points, 25 shots-per-point, and 1-5 scans, as stated. A τ of 800 ns was used, with an approximate time-window length of […], incremented in steps of 200 ns.
1.6 Competitive Binding Model:
Let us begin by considering a binding equilibrium in presence of a competitor ligand (A), with the following two approximations: i) the binding of the ligand (L) and (A) to a protein (P) is mutually exclusive, and ii) the competitor (A) binds to (P) weakly with respect to (L). Here we can define a dissociation constant for both the ligand (KDL) and for the competitor (KDA), given in (S1) and (S2) […]
Rearranging (S1) and (S2) for equilibrium concentrations of protein and protein-competitor complex, given as [P] and [PA] respectively, yields (S3) and (S4):
Here, an expression for total protein, [P]0, can be defined:
Substitution of (S3) and (S4) into (S5) yields (S6):
Symbolic substitution and rearrangement of (S6) to solve for [PL] yields (S7): […]

[3] = molecular target: T2, I6R1/K28H/Q32H GB1; experiment: Zn^II–NTA competitor RIDME pseudotitration (competition assay in presence of Cu^II–NTA); format: binding; conditions: low μM protein concentration
Protocol: The corresponding RIDME pseudotitration was performed at 1 μM protein concentration in the presence of 10 μM Cu^II– NTA (to ensure quantitative loading at the double histidine motif prior to addition of competitor ligand (see SI section 1.6)) and varying Zn^II–NTA concentrations. […] Additionally, this benchmarks quantitation of Cu^II-nitroxide RIDME modulation depths for remotely determining binding affinities of EPR silent ligands, in a competition assay format.
as §1, §2, §3, §4, §5, §6
Figure S2. […]

[4] = molecular target: 6R1/28H/32H GB1; design: method as in earlier work; conditions: pH 7.4; 75 μM protein, 2 mM CuII-NTA; cited from earlier work
[5] = molecular target: T2, I6R1/K28H/Q32H GB1; conditions: pH 7.4; previous work; read-out: fitted dissociation constant; cited from earlier work
[6] = pH 6.4, 298 K, listed as CuII-NTA

O=C([O-])CN(CC(=O)[O-])CC(=O)[O-].[Cu+2] [Cu^II–NTA, Cu^II-nitrilotriacetic acid]
binding at the double-histidine motif ([1]; pH 5.0, 298 K, 75 μM protein, 2 mM Cu^II–NTA): negligible binding
Wiseman factor ([1]; pH 6.4): 0.76
n (stoichiometry of binding) ([1]; pH 6.4, 298 K): ~ 1
ΔH ([1]; pH 6.4, 298 K): -6.9 kcal/mol
n (stoichiometry of binding) [1, 6]: 0.97
ΔH [1, 6]: -6.94 kcal/mol
pKd ([1]; pH 6.4, 298 K, read-out: KD): 4.01
pKd ([1]; pH 6.4, ΔH extrapolated to 235 K, listed as CuII-NTA, read-out: Predicted KD at 235 K): 5.37
pKd ([1]; pH 6.4, ΔH extrapolated to 235 K, read-out: Predicted KD at 235 K): ~5.40
Wiseman factor ([1]; pH 8.4): 9.42
n (stoichiometry of binding) ([1]; pH 8.4, 298 K): ~ 2
ΔH ([1]; pH 8.4, 298 K): -15.2 kcal/mol
n (stoichiometry of binding) ([1]; pH 8.4, 298 K, listed as CuII-NTA): 2.04
pKd ([1]; pH 8.4, 298 K, listed as CuII-NTA, read-out: KD): 5.10
pKd ([1]; pH 8.4, 298 K, read-out: KD): 5.10
predicted increase in affinity compared to previous work ([1]; pH 8.4, predicted from room-temperature ITC): 20 fold
Wiseman factor ([1]; pH 9.0): 3.00
ΔH ([1]; pH 9.0, 298 K): -2.92 kcal/mol
n (stoichiometry of binding) ([1]; pH 9.0, 298 K, 1 mM CuII-NTA): 0.94
pKd ([1]; pH 9.0, 298 K, read-out: KD): 4.60
pKd ([1]; pH 9.0, read-out: Predicted KD at 235 K): 5.18
affinity reduction compared to pH 7.4 ([2]; pH 6.4): 2 fold
available double-histidine motifs saturated ([2]; pH 6.4, 5 μM protein, 1 equiv of Cu^II–NTA): ~70%
pKd ([2]; pH 6.4, 5 μM protein): 6.51
binding affinity higher than at pH 7.4 ([2]; pH 8.4): approximately 2 fold
pKd ([2]; pH 8.4, 2 μM protein): 7.04
robust against Zn^II–NTA competitor ligand in molar excess [3]: > 1000 fold
pKd [4]: 5.30
pKd [5]: 6.85
